Values joined by “and” are separate entries in the source; they are usually repeats but may differ in a detail not shown here. Identical values can stand only once. Toxic doses and inconclusive results are not listed. Rule for the calls: active = survival T/C of 150% or more; inactive = T/C below 125% in these data.
Test system: CD2F1 mice, L1210 leukemia ip, survival T/C
Experiment: NCI In Vivo Anticancer Drug Screen. Data for tumor model L1210 Leukemia (intraperitoneal) in CD2F1 (CDF1) mice
Conditions: higher = longer survival
Method in brief: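 Implant tumor; dose compound or vehicle; measure endpoint in both groups; report treated divided by control.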

[1] = endpoint: mean survival time, dose: 100.0 mg/kg/injection, schedule: Q01DX009 (ip), vehicle: saline with Tween-80
[2] = endpoint: mean survival time, dose: 100.0 mg/kg/injection, schedule: Q04DX003 (ip), vehicle: saline with Tween-80
[3] = endpoint: mean survival time, dose: 200.0 mg/kg/injection, schedule: Q01DX009 (ip), vehicle: saline with Tween-80
[4] = endpoint: mean survival time, dose: 200.0 mg/kg/injection, schedule: Q04DX003 (ip), vehicle: saline with Tween-80
[5] = endpoint: mean survival time, dose: 400.0 mg/kg/injection, schedule: Q01DX009 (ip), vehicle: saline with Tween-80
[6] = endpoint: mean survival time, dose: 400.0 mg/kg/injection, schedule: Q04DX003 (ip), vehicle: saline with Tween-80
[7] = endpoint: mean survival time, dose: 50.0 mg/kg/injection, schedule: Q04DX003 (ip), vehicle: saline with Tween-80
[8] = endpoint: mean survival time, dose: 100.0 mg/kg/injection, schedule: Q01DX009 (ip), vehicle: other

Measured: T/C

CC(C)C1(C(=O)NNC(=O)CCCc2ccc(N(CCCl)CCCl)cc2)OC2(O)CCCCCN2C1=O (configuration not stated)
inactive: endpoint: mean survival time, dose: 6.25 mg/kg/injection, schedule: Q04DX003 (ip), vehicle: DMSO 101 % of control | endpoint: mean survival time, dose: 12.5 mg/kg/injection, schedule: Q04DX003 (ip), vehicle: DMSO 95 % of control | endpoint: mean survival time, dose: 25.0 mg/kg/injection, schedule: Q04DX003 (ip), vehicle: DMSO 114 % of control

O=[N+]([O-])c1cccc(S(=O)(=O)Nc2ccccc2Cl)c1
inactive: [1] 97 % of control | [2] 96 % of control | [3] 92 % of control | [4] 96 % of control | [5] 95 % of control | [6] 95 % of control

CCOC(=O)c1[nH]c2cccc3c2c1CC(Br)C3=O (configuration not stated)
inactive: endpoint: median survival time, dose: 12.5 mg/kg/injection, schedule: Q01DX009 (ip), vehicle: saline with Tween-80 120 % of control | endpoint: median survival time, dose: 25.0 mg/kg/injection, schedule: Q01DX009 (ip), vehicle: saline with Tween-80 109 % of control | endpoint: median survival time, dose: 50.0 mg/kg/injection, schedule: Q01DX009 (ip), vehicle: saline with Tween-80 109 % of control | endpoint: median survival time, dose: 100.0 mg/kg/injection, schedule: Q01DX009 (ip), vehicle: saline with Tween-80 107 % of control

c1ccc(C2=NN(c3ccccc3)C(c3ccccc3)C2NC2CCCCC2)cc1 (configuration not stated)
inactive: endpoint: mean survival time, dose: 100.0 mg/kg/injection, schedule: Q04DX003 (ip), vehicle: acetone 93 % of control | endpoint: mean survival time, dose: 200.0 mg/kg/injection, schedule: Q04DX003 (ip), vehicle: acetone 92 % of control | endpoint: mean survival time, dose: 400.0 mg/kg/injection, schedule: Q04DX003 (ip), vehicle: acetone 97 % of control

c1cncc(-c2nc3ccccc3s2)c1
inactive: endpoint: mean survival time, dose: 100.0 mg/kg/injection, schedule: Q04DX003 (ip), vehicle: Klucel (hydroxypropylcellulose) (HPC) 103 % of control | endpoint: mean survival time, dose: 200.0 mg/kg/injection, schedule: Q04DX003 (ip), vehicle: Klucel (hydroxypropylcellulose) (HPC) 100 % of control | endpoint: mean survival time, dose: 400.0 mg/kg/injection, schedule: Q04DX003 (ip), vehicle: Klucel (hydroxypropylcellulose) (HPC) 100 % of control

C=CCSc1ncnc2c1c1c(N)ncnc1n2C1OC(CO)C(O)C1O (configuration not stated)
inactive: endpoint: mean survival time, dose: 6.25 mg/kg/injection, schedule: Q01DX005 (ip), vehicle: other 103 % of control | endpoint: mean survival time, dose: 12.5 mg/kg/injection, schedule: Q01DX005 (ip), vehicle: other 109 % of control | endpoint: mean survival time, dose: 25.0 mg/kg/injection, schedule: Q01DX005 (ip), vehicle: other 101 % of control | endpoint: mean survival time, dose: 50.0 mg/kg/injection, schedule: Q01DX005 (ip), vehicle: other 107 % of control | endpoint: mean survival time, dose: 100.0 mg/kg/injection, schedule: Q01DX005 (ip), vehicle: other 103 % of control | endpoint: mean survival time, dose: 200.0 mg/kg/injection, schedule: Q01DX005 (ip), vehicle: other 109 % of control

Nc1ccccc1SSc1ccccc1N
inactive: [2] 98 % of control | [4] 90 % of control

C[n+]1c(-c2cccc(-c3ccccc3)c2)c2cc(N)ccc2c2ccccc21
inactive: endpoint: mean survival time, dose: 0.78 mg/kg/injection, schedule: Q01DX009 (ip), vehicle: other 92 % of control | endpoint: mean survival time, dose: 1.56 mg/kg/injection, schedule: Q01DX009 (ip), vehicle: other 92 % of control | endpoint: mean survival time, dose: 3.13 mg/kg/injection, schedule: Q01DX009 (ip), vehicle: other 104 % of control | endpoint: mean survival time, dose: 6.25 mg/kg/injection, schedule: Q01DX009 (ip), vehicle: other 108 % of control and 110 % of control

CCCCCCCCCCCCCCCc1ccc(C(=O)C[n+]2ccccc2)cc1
inactive: endpoint: mean survival time, dose: 12.5 mg/kg/injection, schedule: Q01DX009 (ip), vehicle: saline with Tween-80 117 % of control | endpoint: mean survival time, dose: 12.5 mg/kg/injection, schedule: Q04DX003 (ip), vehicle: saline with Tween-80 103 % of control | endpoint: mean survival time, dose: 25.0 mg/kg/injection, schedule: Q04DX003 (ip), vehicle: saline with Tween-80 106 % of control | [7] 111 % of control

COc1cc(NC(=O)CC(C)=O)c(OC)cc1Cl
inactive: [1] 96 % of control | [3] 94 % of control | [5] 91 % of control

CC(=O)Nc1c(C)cccc1[N+](=O)[O-]
inactive: endpoint: mean survival time, dose: 25.0 mg/kg/injection, schedule: Q01DX001 (ip), vehicle: saline with Tween-80 101 % of control | endpoint: mean survival time, dose: 50.0 mg/kg/injection, schedule: Q01DX001 (ip), vehicle: saline with Tween-80 97 % of control | endpoint: mean survival time, dose: 100.0 mg/kg/injection, schedule: Q01DX001 (ip), vehicle: saline with Tween-80 97 % of control

CC(=O)Nc1cc(N)cc(-c2ccccc2)c1
inactive: endpoint: mean survival time, dose: 50.0 mg/kg/injection, schedule: Q04DX002 (ip), vehicle: saline with Tween-80 96 % of control and 104 % of control | [2] 94 % of control and 97 % of control | [4] 90 % of control and 94 % of control | [6] 94 % of control and 100 % of control

COc1ccc(OC)c(NC(=O)N2CCCC(C)C2)c1 (configuration not stated)
inactive: endpoint: mean survival time, dose: 88.0 mg/kg/injection, schedule: Q01DX009 (ip), vehicle: other 95 % of control | [8] 124 % of control | endpoint: mean survival time, dose: 133.0 mg/kg/injection, schedule: Q01DX009 (ip), vehicle: other 95 % of control | endpoint: mean survival time, dose: 300.0 mg/kg/injection, schedule: Q01DX009 (ip), vehicle: other 95 % of control

CC(=O)Nc1ccc(/C=N/NC(=O)COc2ccccc2)cc1
inactive: [1] 97 % of control | [3] 94 % of control | [5] 94 % of control

CO[C@@]12[C@@H]3N[C@@H]3CN1C1=C(C(=O)C(NCCc3ccccn3)=C(C)C1=O)[C@@H]2COC(N)=O
inactive: endpoint: median survival time, dose: 3.12 mg/kg/injection, schedule: Q01DX001 (ip), vehicle: saline with Tween-80 93 % of control | endpoint: median survival time, dose: 6.25 mg/kg/injection, schedule: Q01DX001 (ip), vehicle: saline with Tween-80 111 % of control | endpoint: median survival time, dose: 12.5 mg/kg/injection, schedule: Q01DX001 (ip), vehicle: saline with Tween-80 120 % of control | endpoint: median survival time, dose: 25.0 mg/kg/injection, schedule: Q01DX005 (ip), vehicle: saline with Tween-80 89 % of control | endpoint: median survival time, dose: 3.12 micrograms/kg/injection, schedule: Q01DX001 (ip), vehicle: saline with Tween-80 97 % of control | endpoint: median survival time, dose: 6.25 micrograms/kg/injection, schedule: Q01DX001 (ip), vehicle: saline with Tween-80 102 % of control | endpoint: median survival time, dose: 12.5 micrograms/kg/injection, schedule: Q01DX001 (ip), vehicle: saline with Tween-80 108 % of control | endpoint: median survival time, dose: 25.0 micrograms/kg/injection, schedule: Q01DX001 (ip), vehicle: saline with Tween-80 97 % of control | endpoint: median survival time, dose: 50.0 micrograms/kg/injection, schedule: Q01DX001 (ip), vehicle: saline with Tween-80 97 % of control | endpoint: median survival time, dose: 3125.0 micrograms/kg/injection, schedule: Q01DX001 (ip), vehicle: saline with Tween-80 118 % of control
active: endpoint: median survival time, dose: 3.13 mg/kg/injection, schedule: Q01DX005 (ip), vehicle: saline with Tween-80 153 % of control | endpoint: median survival time, dose: 6.25 mg/kg/injection, schedule: Q01DX005 (ip), vehicle: saline with Tween-80 164 % of control | endpoint: median survival time, dose: 12.5 mg/kg/injection, schedule: Q01DX005 (ip), vehicle: saline with Tween-80 166 % of control | endpoint: median survival time, dose: 18.0 mg/kg/injection, schedule: Q01DX001 (ip), vehicle: saline with Tween-80 153 % of control | endpoint: median survival time, dose: 30.0 mg/kg/injection, schedule: Q01DX001 (ip), vehicle: saline with Tween-80 160 % of control | endpoint: median survival time, dose: 50.0 mg/kg/injection, schedule: Q01DX001 (ip), vehicle: saline with Tween-80 188 % of control and 200 % of control | endpoint: median survival time, dose: 83.32 mg/kg/injection, schedule: Q01DX001 (ip), vehicle: saline with Tween-80 156 % of control | endpoint: median survival time, dose: 25000.0 micrograms/kg/injection, schedule: Q01DX001 (ip), vehicle: saline with Tween-80 153 % of control | endpoint: median survival time, dose: 50000.0 micrograms/kg/injection, schedule: Q01DX001 (ip), vehicle: saline with Tween-80 322 % of control

CCN(CC)c1ccc(C)cc1Cl
inactive: endpoint: mean survival time, dose: 100.0 mg/kg/injection, schedule: Q04DX003 (ip), vehicle: saline sonified 102 % of control

c1ccc(OCCOc2ccccc2)cc1
inactive: [7] 98 % of control | [2] 89 % of control | [4] 91 % of control

OB(O)Oc1ccc(Br)cc1
inactive: endpoint: mean survival time, dose: 50.0 mg/kg/injection, schedule: Q01DX009 (ip), vehicle: other 95 % of control | [8] 91 % of control | endpoint: mean survival time, dose: 200.0 mg/kg/injection, schedule: Q01DX009 (ip), vehicle: other 102 % of control

CCNC(=S)Nc1ccccc1
inactive: endpoint: mean survival time, dose: 50.0 mg/kg/injection, schedule: Q01DX009 (ip), vehicle: saline with Tween-80 103 % of control | [1] 100 % of control | [3] 111 % of control

OC1CCC(O)C2C3CCC(C3)C12 (configuration not stated)
inactive: [1] 98 % of control | [3] 100 % of control | [5] 102 % of control

O=S(CCO)c1c(Cl)c(Cl)c(Cl)c(Cl)c1Cl (configuration not stated)
inactive: endpoint: mean survival time, dose: 100.0 mg/kg/injection, schedule: Q04DX002 (ip), vehicle: saline with Tween-80 94 % of control | endpoint: mean survival time, dose: 200.0 mg/kg/injection, schedule: Q04DX002 (ip), vehicle: saline with Tween-80 94 % of control

CC1CCCC(C)N1c1ccc(NC(=O)c2ccc(C(=O)Nc3ccc(N4C(C)CCCC4C)cc3)cc2)cc1 (configuration not stated)
inactive: endpoint: mean survival time, dose: 100.0 mg/kg/injection, schedule: Q01DX001 (ip), vehicle: saline 86 % of control

Source: PubChem BioAssay AID256 (DTP/NCI, 2004)
